Columns and labels:
[1] = Moisture sorption isotherms (Example 6B, Hiden IGASorp / SMS DVS Intrinsic); format: physicochemical; conditions: for Water absorbed up to 90% RH: 25 °C
Method: Sorption isotherms were obtained using a Hiden IGASorp moisture sorption analyser, controlled by CFRSorp software. The sample temperature was maintained at 25° C. by a Huber re-circulating water bath. The humidity was controlled by mixing streams of dry and wet nitrogen, with a total flow rate of 250 ml/min. The relative humidity (RH) was measured by a calibrated Vaisala RH probe (dynamic range of 0-95% RH), located near the sample. The weight change, (mass relaxation) of the sample as a function of % RH was constantly monitored by the microbalance (accuracy±0.001 mg).
10-20 mg of sample was placed in a tared mesh stainless steel basket under ambient conditions. The sample was loaded and unloaded at 40% RH and 25° C. (typical room conditions).
A moisture sorption isotherm was performed as outlined in Table 1 below (2 scans giving 1 complete cycle). The standard isotherm was performed at 25° C. at 10% RH intervals over a 0-90% RH range.
The software uses a least squares minimization procedure together with a model of the mass relaxation, to predict an asymptotic value. The measured mass relaxation value must be within 5% of that predicted by the software, before the next % RH value is selected. The minimum equilibration time was set to 1 hour and the maximum to 4 hours. […] The sample was recovered after completion of the isotherm and re-analyzed by XRPD.
In other cases, sorption isotherms were also obtained using a SMS DVS Intrinsic moisture sorption analyser, controlled by DVS Intrinsic Control software v1.0.1.2 (or v 1.0.1.3). […] The humidity was controlled by mixing streams of dry and wet nitrogen, with a total flow rate of 200 ml/min The relative humidity was measured by a calibrated Rotronic probe (dynamic range of 1.0-100% RH), located near the sample. The weight change, (mass relaxation) of the sample as a function of % RH was constantly monitored by the microbalance (accuracy±0.005 mg).
5-20 mg of sample was placed in a tared mesh stainless steel basket under ambient conditions. […] The sample was recovered after completion of the isotherm and re-analyzed by XRPD.

[2] = PK study in pentagastrin- or famotidine-pretreated dogs; conditions: famotidine-pretreated dogs, similar tablet formulation
Method: Pentagastrin pretreatment (6 μg/kg intramuscular injection 30 minutes prior to test formulation dosing) in fasted dogs was used to simulate fasting gastric pH in humans. Famotidine pretreatment (20 mg orally 1 hour prior to test formulation dosing) in fasted dogs was used to simulate human gastric pH when acid suppressant was co-dosed with test formulation. The tablets of the mono-MSA salt or bis-MSA salt of a compound of Formula I (conventional tablet and spray dried formulation) were orally administered followed by a 30 mL water flush.

Solubility in water = format: physicochemical; conditions: final pH of the water solubility sample
[3] = Hygroscopicity by dynamic vapor sorption (Example 6A, Q5000SA); format: physicochemical; conditions: after full sorption/desorption cycle
Method: Hygroscopicity of polymorph Form 3 and polymorph Form 7 at 25° C. was determined by dynamic vapor sorption (DVS) using an automated vapor sorption balance (Q5000SA; TA instruments, New Castle, Del.). Hygroscopicity was studied as a function of relative humidity (RH) over the range of 0 to 90%. Approximately 10 mg of solid sample was placed directly onto the 13 mm quartz DVS sample cup and equilibrated at 0% relative humidity (RH) until a constant weight was achieved. After equilibration, the RH was increased in increments of 10% to reach 90%, and the water sorption was monitored. For desorption, the relative humidity was deceased in a similar manner to accomplish a full sorption/desorption cycle.
For all experiments, the instrument was operated in dm/dt mode (mass variation over time) to determine when equilibrium was reached. A fixed dm/dt value of 0.0010% min^−1 was selected for all RH segments. A maximum stage of 360 minutes and a minimum stage of 60 minutes were selected for these experiments.

SMILES | Water absorbed up to 90% RH ([1]; listed as Polymorph Form 7) | Water absorbed up to 90% RH ([1]; listed as Form 3) | Form by XRPD after DVS analysis ([1]; after isotherm) | Increase of AUC0-24 compared to the mono-MSA salt formulation [2] | final pH (Solubility in water) | Form by XRPD at the end of the DVS experiment [3]
c1cn2cc(-c3ccc4cn[nH]c4c3)nc(Nc3ccc(N4CCOCC4)cc3)c2n1 [polymorph Form 7] | ~21 wt. % |  |  |  |  | 
c1cn2cc(-c3ccc4cn[nH]c4c3)nc(Nc3ccc(N4CCOCC4)cc3)c2n1 [polymorph Form 3] |  | ~20 wt. % | converted to Form 7 | more than 10 fold | (final pH <1.5) | converted to Form 7

Source: patent publication US10266539B2, “Polymorph of Syk inhibitors” (Gilead Connecticut, Inc., priority 2013, dated 2019)
